# Results from US6794371B1, “Aminoalkylenephosphonates for treatment of bone disorders” (The Dow Chemical Company, priority 1999, dated 2004).
# Test system: ovariectomized rats (bone mineral density)
# Assay: Ovariectomized rat osteoporosis model, bone mineral density by dual energy X-ray absorptiometry (DEXA) (Example 2)
# Conditions: 5 mg/kg
# Method: Eleven week old Female Sprague-Dawley laboratory rats (75) were fed a commercial rat diet and were allowed to drink water ad libitum. They were housed in pairs in an air-conditioned environment, and were allowed to enjoy 14 hours of illumination per day. Ten rats were sham-operated and were used as “non-osteopenic” control rats. All of the other rats were ovariectomized at 12 weeks of age. All surgeries were done under injectable anesthesia. […] The remaining rats were given various phosphonate compounds in groups of ten.
# The rats were given doses three times during the first week and once a week thereafter.
# All other compounds were dosed at 5 mg/kg. In this study, bone mineral density was determined by dual energy X-ray absorptiometry (DEXA).
smiles,measurement,value
"O=P(O)(O)CN(Cc1ccccn1)CP(=O)(O)O [AMPDMP, N,N-bis(methylenephosphonic acid)-2-(aminomethyl)pyridine]","bone mineral density (BMD) over the study period, relative to OVX control group",look even better
"O=P(O)(O)CN1Cc2cccc(n2)CN(CP(=O)(O)O)Cc2cccc(n2)C1 [BP2MP, N,N′-bis(methylenephosphonic acid)-2,11-diaza[3.3](2,6)pyridinophane]","bone mineral density (BMD) over the study period, relative to OVX control group",look even better
